In article PMC5350466 (mBio, 2017):
Converted amounts (≈) assume the structure as drawn.

Tests used:
BcnA [1] = target: T1, BcnA (Burkholderia cenocepacia, UniProt B4EE32); assay: In vitro binding assay: Nile red displacement from BcnA; conditions: against 1.5 µM Nile red binding to 1.5 µM BcnA in PBS; read-out: binding inhibition constant (Ki)
T1 sequence (B4EE32 27-186): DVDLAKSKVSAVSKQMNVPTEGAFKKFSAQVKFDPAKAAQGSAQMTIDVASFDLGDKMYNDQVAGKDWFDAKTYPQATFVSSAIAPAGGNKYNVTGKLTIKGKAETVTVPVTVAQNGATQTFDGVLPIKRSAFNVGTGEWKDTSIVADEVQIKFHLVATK
Method: In vitro binding assays were performed as previously described ([23]), with a few modifications. Purified BCNs were prepared in phosphate-buffered saline (PBS, pH 7.4). Phospholipids and Nile red were prepared in DMSO. […] All spectra were corrected for background fluorescence determined from probe-into-buffer titrations. Fluorescence was measured with a Cary Eclipse fluorescence spectrophotometer (Varian) set at an excitation wavelength (λex) specific for each probe, as follows: Nile red, 550 nm; BODIPY phospholipids, 500 nm for fatty acyl BODIPY-labeled phosphocholine and 505 nm for head group BODIPY-labeled phosphoethanolamine. The emission spectrum for each probe was collected across the following wavelengths (λem): Nile red, 590 to 750 nm; BODIPY phospholipids, 510 to 665 nm. The background-corrected binding fluorescence with each probe was fitted to a one-site binding model as previously described for human AGP ([23]). The equilibrium binding affinity constant for the probe-BCN complex (Kd), the probe concentration needed to achieve half-maximum binding at equilibrium, was determined by nonlinear least-squares regression analysis of the binding isotherms with GraphPad Prism v 5.0 software (GraphPad Software, Inc.).
For probe displacement experiments, antibiotic solutions and fat-soluble vitamins (prepared in DMSO) diluted in PBS, pH 7.4, were titrated against a BCN-probe complex at a saturating concentration necessary to obtain the maximum fluorescence when bound. Probe displacement was measured as the corresponding decrease in fluorescence upon the progressive increase in the antibiotic concentration. The binding inhibition constants (Kis) of the test compounds were determined by nonlinear regression analysis with competition-binding equations for one-site binding calculated by GraphPad Prism v 5.0 software. The lower the Ki values, the higher the affinity of the molecule for BcnA. All fluorometric assays were conducted in duplicate three independent times.

B. cenocepacia K56-2 = assay: MIC by broth microdilution, parental strain; type: cell-based, Burkholderia cenocepacia; conditions: broth microdilution in cation-adjusted MHB at 18 to 24 h; for MIC: Burkholderia cenocepacia, K562
bcnA::luxCDABE = assay: Luciferase expression assay, bcnA::luxCDABE; type: cell-based, Burkholderia cenocepacia; conditions: antibiotic at concentrations near the MIC (sublethal), 3 h
BcnA [2] = target: T1, BcnA; assay: Antibiotic bioassay of sequestration by BcnA; type: binding; conditions: 1.5 µM BcnA, 30 min at 37°C, 10-kDa cutoff filtration
Method: Antibiotic test solutions with or without 1.5 µM BcnA were incubated for 30 min at 37°C with rotation. The solutions were filtered through filter units with a 10-kDa cutoff by centrifugation at 7,500 × g, at 4°C for 10 min. The antibiotic concentrations in the filtrates were determined by spotting 5 µl onto sterile filter discs placed on agar plates swabbed with the test bacteria. Petri dishes (15-cm diameter) containing 40 ml of LB agar were swabbed with bacterial suspensions with an OD600 of 0.04. The plates were incubated at 37°C for 24 h. Each plate included four discs containing standard concentrations of the antibiotic alongside the discs impregnated with test and control antibiotic solutions. E. coli DH5α was used for bioassays of PmB, norfloxacin, ceftazidime, and gentamicin, and S. aureus USA300 was used for bioassays of rifampin. The theoretical disc contents of the test antibiotic solutions were 10, 5, 2, 30, and 10 µg for PmB, rifampin, norfloxacin, ceftazidime, and gentamicin, respectively. Standard antibiotic discs contained a 2-fold higher concentration than, the same concentration as, or a 2- or 4-fold lower concentration than the test antibiotic discs. After incubation, the clear zones of inhibition were measured and the antibiotic concentrations were determined from standard curves constructed from the standard antibiotic discs.

bcnB::luxCDABE = assay: Luciferase expression assay, bcnB::luxCDABE; type: cell-based, Burkholderia cenocepacia; conditions: antibiotic at concentrations near the MIC (sublethal), 3 h
ΔbcnA pSCRhaB2 = assay: MIC by E test; type: cell-based, Burkholderia cenocepacia; conditions: 24 h
ΔbcnA pbcnA (Sa) = assay: MIC by E test; type: cell-based, Burkholderia cenocepacia; conditions: 24 h
K56-2 pSCRhaB2 = assay: MIC by E test; type: cell-based; conditions: Burkholderia cenocepacia, 24 h, read-out: MIC by Etest, K56-2 pSCRhaB2
[3] = test system: B. cenocepacia ΔbcnB mutant; assay: MIC by broth microdilution, ΔbcnB mutant; type: cell-based, Burkholderia cenocepacia; conditions: broth microdilution in cation-adjusted MHB at 18 to 24 h
[4] = test system: B. cenocepacia ΔbcnA mutant; assay: MIC by broth microdilution, ΔbcnA mutant; type: cell-based, Burkholderia cenocepacia

Molecule	Ki (BcnA [1]) [µM]	MIC (B. cenocepacia K56-2) [µg/mL]	expression of bcnA::luxCDABE upon exposure to antibiotic (bcnA::luxCDABE)	antibiotic sequestration by BcnA (BcnA [2])	further results
menaquinone [Vit K2]	0.569	–	–	–	–
COc1cc(Cc2cnc(N)nc2N)cc(OC)c1OC [Trimethoprim, trimethoprim]	–	8 (≈ 27.6 µM)	–	–	–
Cc1c(C)c2c(c(C)c1O)CC[C@@](C)(CCC[C@H](C)CCC[C@H](C)CCCC(C)C)O2 [Vit E, α-tocopherol]	0.417	–	–	–	–
CNC(C)C1CCC(N)C(OC2C(N)CC(N)C(OC3OCC(C)(O)C(NC)C3O)C2O)O1 (centres unmarked) [Gentamicin, gentamicin]	–	2050 (≈ 4290 µM)	remained unchanged	not	–
CCn1cc(C(=O)O)c(=O)c2cc(F)c(N3CCNCC3)cc21 [Norfloxacin, norfloxacin]	400	128 (≈ 401 µM)	upregulated	sequestered	expression of bcnB::luxCDABE upon exposure to antibiotic (bcnB::luxCDABE): increased
O=C(O)c1cn(C2CC2)c2cc(N3CCNCC3)c(F)cc2c1=O [Cipro, ciprofloxacin]	–	–	–	–	MIC by Etest, ΔbcnA pSCRhaB2 (ΔbcnA pSCRhaB2): 2 μg/ml; MIC by Etest, ΔbcnA pbcnA (Sa) (ΔbcnA pbcnA (Sa)): 4 µg/mL (≈ 12.1 µM); MIC (K56-2 pSCRhaB2): 4 µg/mL (≈ 12.1 µM)
CC[C@H]1OC(=O)[C@H](C)[C@@H](O[C@H]2C[C@@](C)(OC)[C@@H](O)[C@H](C)O2)[C@H](C)[C@@H](O[C@@H]2O[C@H](C)C[C@H](N(C)C)[C@H]2O)[C@](C)(O)C[C@@H](C)CN(C)[C@H](C)[C@@H](O)[C@]1(C)O [Azithromycin, azithromycin]	–	64 (≈ 85.4 µM)	–	–	–
CN(C)c1ccc(O)c2c1C[C@H]1C[C@H]3[C@H](N(C)C)C(O)=C(C(N)=O)C(=O)[C@@]3(O)C(O)=C1C2=O [Minocycline, minocycline]	–	2 (≈ 4.37 µM)	–	–	–
polymyxin B [PmB]	–	–	upregulated	sequestered	MIC ΔbcnB [3]: ≥ 4096 µg/mL; MIC K56-2 (B. cenocepacia K56-2): ≥ 4096 µg/mL; MIC ΔbcnA ([4]; broth microdilution in cation-adjusted MHB at 18 to 24 h): 2048 µg/mL; MIC reduction in the ΔbcnA mutant ([4]; ΔbcnA mutant relative to parental strain): 4 fold
CO[C@H]1/C=C/O[C@@]2(C)Oc3c(C)c(O)c4c(O)c(c(/C=N/N5CCN(C)CC5)c(O)c4c3C2=O)NC(=O)/C(C)=C\C=C\[C@H](C)[C@H](O)[C@@H](C)[C@@H](O)[C@@H](C)[C@H](OC(C)=O)[C@@H]1C [Rifampicin, rifampin]	16.5	256 (≈ 311 µM)	upregulated	sequestered	MIC by Etest, ΔbcnA pSCRhaB2 (ΔbcnA pSCRhaB2): 16 μg/ml; MIC by Etest, ΔbcnA pbcnA (Sa) (ΔbcnA pbcnA (Sa)): ≥ 64 µg/mL; MIC (K56-2 pSCRhaB2): ≥ 64 µg/mL
CC(C)(O/N=C(\C(=O)N[C@@H]1C(=O)N2C(C(=O)[O-])=C(C[n+]3ccccc3)CS[C@H]12)c1csc(N)n1)C(=O)O [Ceftazidime, ceftazidime]	16900	32 (≈ 58.5 µM)	upregulated	sequestered	expression of bcnB::luxCDABE upon exposure to antibiotic (bcnB::luxCDABE): increased; MIC by Etest, ΔbcnA pSCRhaB2 (ΔbcnA pSCRhaB2): 2 μg/ml; MIC by Etest, ΔbcnA pbcnA (Sa) (ΔbcnA pbcnA (Sa)): 8 µg/mL (≈ 14.6 µM); MIC (K56-2 pSCRhaB2): 8 µg/mL (≈ 14.6 µM)
C[C@@H](O)[C@H]1C(=O)N2C(C(=O)O)=C(S[C@@H]3CN[C@H](C(=O)N(C)C)C3)[C@H](C)[C@H]12 [Meropenem, meropenem]	–	1 (≈ 2.61 µM)	–	–	–
